# Data: patent US20250281517A1, “SENOLYSIS BY AMMONIA-LOWERING COMPONENT” (TAZ Inc., priority 2022, published 2025)
# Experiments:
# p21 = test: mRNA expression level of p21, a marker of senescent cells, in tissues of aged mice (real-time RT-PCR, GAPDH as internal standard); type: in vivo; conditions: aged male C57BL/6J mice (78 weeks old), test substance in drinking water ad libitum for one month, compared to aged mice having no additional administration
# Procedure: (§1) As animals, experiments was performed using 7 young mice (male C57BL/6J mice, 7 weeks old) and 28 aged mice (male C57BL/6J-Aged mice, 78 weeks old).
# (§2) Group 1 was constituted of young mice, and aged mice were divided into 4 groups each consisting of 7 mice (Groups 2 to 5) and the experimental conditions of individual groups are set as shown in the Table below.
# (§3) As explained below, water comprising a test substance was given to the mice of Group 3 to Group 5.
# The each types of drinking water which were prepared by adding a test substance as mentioned above was given to mice of each of the groups ad libitum, and the test substance was orally administered for one month. One month after the initiation of the experiment, all mice were sacrificed and dissected. […]
# (§4) The RNA was purified with 75% ethanol, evaporated to dry under reduced pressure, and dissolved in 50 micro l of RNA-free water. Using NanoDrop ND-1000 (NanoDrop Technologies), absorbance was measured at 260 nm and 280 nm to determination of an absorbance ratio (A260/280 nm), RNA purity was confirmed by checking whether or not the absorbance ratio falls within the range of 1.9 to 2.1.
# Quantitative real-time PCR was performed using total RNA extracted from the tissue for analysis of mRNA expressions of senescence markers p16 and p21 commonly known in the technical field. […]
# p16 = test: mRNA expression level of p16, a marker of senescent cells, in tissues of aged mice (real-time RT-PCR, GAPDH as internal standard); type: in vivo; conditions: aged male C57BL/6J mice (78 weeks old), test substance in drinking water ad libitum for one month, compared to aged mice having no additional administration; for mRNA expression level of marker p16 for senescent cells in the hippocampus: FIG. 3
# Procedure: as §1, §2, §3
# The each types of drinking water which were prepared by adding a test substance as mentioned above was given to mice of each of the groups ad libitum, and the test substance was orally administered for one month. One month after the initiation of the experiment, all mice were sacrificed and dissected. From each of the mice, the liver, kidney, hippocampus and skeletal muscle were collected for measurement markers for senescent cells.
# The tissues were collected from mice at the time of dissection and soaked in RNAlater (Ambion) overnight and thereafter stored at −80° C. Total RNA was extracted from the liver tissue by the TRIzol-chroloform method.
# The tissue extracted from RNAlater (50 to 100 mg) was put in 1 ml of TRIzol Reagent (Invitrogen Life Technologies), crushed. After standing still at room temperature for 5 minutes, 0.2 ml of chloroform was added and stirred. After standing still at room temperature for 2 to 3 minutes, the mixture was centrifuged at 4° C. and 12,000×g for 15 minutes. The upper layer (250 micro l) was recovered and 0.5 ml of isopropanol was added. […]
# as §4
# Quantitative real-time PCR was performed using total RNA extracted from the tissue for analysis of mRNA expressions of senescence markers p16 and p21 commonly known in the technical field.
# From the total RNA, CDNA was synthesized using PrimeScript (Registered trademark) RT reagent Kit (Perfect Real Time) in accordance with the protocol of the manufacturer. Then, CDNA was amplified by Thermal Cycler Dice Real Time System TP800 (Takara Bio) and fluorescence was detected by SYBR (Registered trademark) Premix Ex Taq™ (Perfect Real Time) and real-time PCR detection system (Takara Bio). […]
# Using the mRNA expression of glyceraldehyde-3-phosphate dehydrogenase (GAPDH) as an internal standard for correction, the relative values of mRNAs of interest were calculated. […]
structure (smiles),measurement,setting,value
OC[C@H]1O[C@@H](O[C@@H]2[C@@H](CO)OC(O)(CO)[C@H]2O)[C@H](O)[C@@H](O)[C@H]1O (mixture of isomers) [lactulose],mRNA expression level of marker p21 for senescent cells in the kidney,"p21; kidney, FIG. 1",significantly decreased
same,mRNA expression level of marker p21 for senescent cells in the liver,"p21; liver, FIG. 2, upper panel",tended to decrease
same,mRNA expression level of marker p16 for senescent cells in the hippocampus,p16,"decreased, although not significantly"
same,mRNA expression level of marker p16 for senescent cells in the liver,"p16; liver, FIG. 2, lower panel",significantly decreased
same,mRNA expression level of marker p16 for senescent cells in the skeletal muscle,"p16; skeletal muscle, FIG. 4","decreased, although not significantly"
"Cl.NCCC[C@H](N)C(=O)O [ornithine, L-ornithine hydrochloride]",mRNA expression level of marker p16 for senescent cells in the hippocampus,p16,"decreased, although not significantly"
